The values below come from paper PMC6544120, “Stimuli-responsive membrane activity of cyclic-peptide–polymer conjugates” (Chemical Science, 2019).

Structures are written as SMILES.

The assay in a line: Calcein dye leakage assay. The assay is classed as biochemical. Particulars: pure DTT 30 mM without CPNT. As for the experimental part:
This was tested by studying the interaction of our CPNT with synthetic liposomes. A mixture of phosphatidylethanolamine and phosphatidylglycerol was used to simulate the cytosolic membrane of E. coli.[35] Vesicles were loaded with self-quenching concentrations of a fluorescent dye (calcein). This allows to detect disruption of the bilayer, as dye release from the liposomes and the resulting dilution leads to an increase in fluorescence (Scheme S4 ^†).
The fit (Figure S25) was performed with R, Rg, N agg, l and N as adjustable parameter.
Table S2. Fitting parameters for 24 using a form factor of a micelle with a spherical core […]
Rg, corona b 16.6 Å parameters
Vcore (single unit) c 300 Å3 […]
Background subtracted 5 × 10 -2 cm-1 a The radius of the core was calculated from the volume of the whole core given by the volume of the core of a single unit multiplied with the number of aggregation (N agg); b Radius of gyration (R g) of a single chain in the corona; c The Volume of a single cyclic peptide in the core or polymer corona (PEtOx) was estimated from the Mn, divided by the Avogadro constant and assuming a density of 1 g/cm 3, d The scattering lengths density (SLD) of the materials was calculated using the calculator given in SASfit; […]
Formation of vesicles. […]

As to `O[C@@H](CS)[C@@H](O)CS` (racemic) [DTT, 1,4-dithiothreitol], the “Effect of DTT alone on fluorescence intensity (calcein release)” value is recorded as “no effect on the fluorescence intensity”.
